According to patent US20120270237A9, “METHODS FOR THE IDENTIFICATION OF KINASE INTERACTING MOLECULES AND FOR THE PURIFICATION OF KINASE PROTEINS” (Cellzone AG, priority 2009, published 2012):

Tests used:
Assay in all cases: Kinobeads competition binding, HL60 cell lysate
Conditions in all cases: 10 μM free compound
DYRKIA = target: T1, DYRKIA (Homo sapiens, UniProt Q13627)
T1 construct: endogenous in cells; host or cells: HL60 (DSMZ ACC3)
Protocol: (§1) To one aliquot of cell lysate 10 μM of the free compound (FIG. 3, CZC31326) was added and allowed to bind to proteins in the lysate. Then the affinity matrix with the immobilized compound (Example 1) was added to capture proteins that were not interacting with the previously added free compound. Beads were separated from the lysate and bead bound proteins were eluted in SDS sample buffer and subsequently separated by SDS-Polyacrylamide gel electrophoresis (FIG. 4). Suitable gel bands were cut out and subjected to in-gel proteolytic digestion with trypsin. The second lysate aliquot was processed identically, however no free compound was added (DMSO solvent control). Peptides originating from samples 1 and 2 were labeled with iTRAQ reagents (iTRAQ 114 and iTRAQ 117) and the combined samples were analyzed with a nano-flow liquid chromatography system coupled online to a tandem mass spectrometer (LC-MS/MS) experiment followed by iTRAQ reporter ion quantification in the MS/MS spectra (Ross et al., 2004. Mol. Cell. Proteomics 3(12):1154-1169). Further experimental protocols can be found in WO2006/134056 and a previous publication (Bantscheff et al., 2007. Nature Biotechnology 25, 1035-1044). Sepharose-beads with the immobilized compound (100 μl beads per pull-down experiment) were equilibrated in lysis buffer and incubated with a cell lysate sample containing 50 mg of protein on an end-over-end shaker (Roto Shake Genie, Scientific Industries Inc.) for 2 hours at 4° C. Beads were collected, transferred to Mobicol-columns (MoBiTech 10055) and washed with 10 ml lysis buffer containing 0.4% NP40 detergent, followed by 5 ml lysis buffer containing 0.2% detergent. To elute bound proteins, 60 μl 2×SDS sample buffer was added to the column. The column was incubated for 30 minutes at 50° C. and the eluate was transferred to a siliconized microfuge tube by centrifugation. Proteins were then alkylated with 108 mM iodoacetamid. Proteins were then separated by SDS-Polyacrylamide electrophoresis (SDS-PAGE). The peptide extracts of samples treated with 10 μM of free compound (CZC31326) and the solvent control (0.5% DMSO) were treated with different variants of the isobaric tagging reagent (iTRAQ Reagents Multiplex Kit, part number 4352135, Applied Biosystems, Foster City, Calif., USA). The iTRAQ reagents are a set of multiplexed, amine-specific, stable isotope reagents that can label peptides on amino groups in up to four different biological samples enabling simultaneous identification and quantitation of peptides. The iTRAQ reagents were used according to instructions provided by the manufacturer. The samples were resuspended in 10 μl 50 mM TEAB solution, pH 8.5 and 10 μl ethanol were added. The iTRAQ reagent was dissolved in 120 μl ethanol and 10 μl of reagent solution were added to the sample. The labeling reaction was performed at room temperature for one hour on a horizontal shaker and stopped by adding 5 μl of 100 mM TEAB and 100 mM glycine in water. The two labeled sampled were then combined, dried in a vacuum centrifuge and resuspended in 10 μl of 0.1% formic acid in water. Relative protein quantitation was performed using peak areas of iTRAQ reporter ion signals essentially as described in an earlier publication (Bantscheff et al., 2007. Nature Biotechnology 25, 1035-1044).

GAK = target: T2, GAK (Homo sapiens, UniProt O14976)
T2 sequence (O14976 1-1311): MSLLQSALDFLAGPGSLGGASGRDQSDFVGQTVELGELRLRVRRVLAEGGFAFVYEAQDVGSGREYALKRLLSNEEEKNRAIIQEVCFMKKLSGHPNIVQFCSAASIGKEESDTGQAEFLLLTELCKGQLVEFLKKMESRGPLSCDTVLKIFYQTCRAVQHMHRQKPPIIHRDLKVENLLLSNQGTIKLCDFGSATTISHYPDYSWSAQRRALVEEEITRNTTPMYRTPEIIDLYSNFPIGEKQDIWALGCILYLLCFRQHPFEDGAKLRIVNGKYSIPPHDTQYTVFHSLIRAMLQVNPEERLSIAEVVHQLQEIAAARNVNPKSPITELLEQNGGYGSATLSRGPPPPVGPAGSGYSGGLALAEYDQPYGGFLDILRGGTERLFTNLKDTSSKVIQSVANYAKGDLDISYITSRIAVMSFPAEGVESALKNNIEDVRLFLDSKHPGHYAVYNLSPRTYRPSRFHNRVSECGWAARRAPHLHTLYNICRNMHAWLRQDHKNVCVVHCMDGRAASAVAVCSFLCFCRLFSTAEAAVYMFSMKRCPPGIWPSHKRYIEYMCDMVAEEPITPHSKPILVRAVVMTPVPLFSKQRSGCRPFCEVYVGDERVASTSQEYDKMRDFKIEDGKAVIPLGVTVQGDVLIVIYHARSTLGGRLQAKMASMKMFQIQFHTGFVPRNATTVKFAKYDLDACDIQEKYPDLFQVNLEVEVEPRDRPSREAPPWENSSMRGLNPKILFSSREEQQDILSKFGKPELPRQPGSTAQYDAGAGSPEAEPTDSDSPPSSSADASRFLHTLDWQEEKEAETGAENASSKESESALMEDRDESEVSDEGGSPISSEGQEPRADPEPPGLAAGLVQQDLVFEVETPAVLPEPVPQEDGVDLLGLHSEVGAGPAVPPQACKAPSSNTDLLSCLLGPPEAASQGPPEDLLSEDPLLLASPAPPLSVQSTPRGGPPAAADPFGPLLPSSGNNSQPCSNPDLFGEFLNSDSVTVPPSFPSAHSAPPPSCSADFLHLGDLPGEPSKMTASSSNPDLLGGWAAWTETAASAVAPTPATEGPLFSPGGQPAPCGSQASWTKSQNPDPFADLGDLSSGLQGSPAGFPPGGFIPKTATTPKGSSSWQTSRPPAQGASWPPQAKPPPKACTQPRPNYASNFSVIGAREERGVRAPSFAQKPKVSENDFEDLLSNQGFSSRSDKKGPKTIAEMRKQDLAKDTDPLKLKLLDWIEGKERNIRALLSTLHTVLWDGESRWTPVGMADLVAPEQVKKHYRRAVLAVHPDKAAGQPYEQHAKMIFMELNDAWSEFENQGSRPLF
Protocol: as §1

HIPK1 = target: T3, HIPK1 (Homo sapiens, UniProt Q86Z02)
T3 construct: endogenous in cells; host or cells: HL60
Protocol: as §1

KHS1 = target: T4, KHS1 (Homo sapiens, UniProt Q9Y4K4)
T4 construct: Identified kinases with CZC31326 from HL60 lysate; endogenous in cells; host or cells: HL60
Protocol: as §1

T3 sequence (Q86Z02 whole entry): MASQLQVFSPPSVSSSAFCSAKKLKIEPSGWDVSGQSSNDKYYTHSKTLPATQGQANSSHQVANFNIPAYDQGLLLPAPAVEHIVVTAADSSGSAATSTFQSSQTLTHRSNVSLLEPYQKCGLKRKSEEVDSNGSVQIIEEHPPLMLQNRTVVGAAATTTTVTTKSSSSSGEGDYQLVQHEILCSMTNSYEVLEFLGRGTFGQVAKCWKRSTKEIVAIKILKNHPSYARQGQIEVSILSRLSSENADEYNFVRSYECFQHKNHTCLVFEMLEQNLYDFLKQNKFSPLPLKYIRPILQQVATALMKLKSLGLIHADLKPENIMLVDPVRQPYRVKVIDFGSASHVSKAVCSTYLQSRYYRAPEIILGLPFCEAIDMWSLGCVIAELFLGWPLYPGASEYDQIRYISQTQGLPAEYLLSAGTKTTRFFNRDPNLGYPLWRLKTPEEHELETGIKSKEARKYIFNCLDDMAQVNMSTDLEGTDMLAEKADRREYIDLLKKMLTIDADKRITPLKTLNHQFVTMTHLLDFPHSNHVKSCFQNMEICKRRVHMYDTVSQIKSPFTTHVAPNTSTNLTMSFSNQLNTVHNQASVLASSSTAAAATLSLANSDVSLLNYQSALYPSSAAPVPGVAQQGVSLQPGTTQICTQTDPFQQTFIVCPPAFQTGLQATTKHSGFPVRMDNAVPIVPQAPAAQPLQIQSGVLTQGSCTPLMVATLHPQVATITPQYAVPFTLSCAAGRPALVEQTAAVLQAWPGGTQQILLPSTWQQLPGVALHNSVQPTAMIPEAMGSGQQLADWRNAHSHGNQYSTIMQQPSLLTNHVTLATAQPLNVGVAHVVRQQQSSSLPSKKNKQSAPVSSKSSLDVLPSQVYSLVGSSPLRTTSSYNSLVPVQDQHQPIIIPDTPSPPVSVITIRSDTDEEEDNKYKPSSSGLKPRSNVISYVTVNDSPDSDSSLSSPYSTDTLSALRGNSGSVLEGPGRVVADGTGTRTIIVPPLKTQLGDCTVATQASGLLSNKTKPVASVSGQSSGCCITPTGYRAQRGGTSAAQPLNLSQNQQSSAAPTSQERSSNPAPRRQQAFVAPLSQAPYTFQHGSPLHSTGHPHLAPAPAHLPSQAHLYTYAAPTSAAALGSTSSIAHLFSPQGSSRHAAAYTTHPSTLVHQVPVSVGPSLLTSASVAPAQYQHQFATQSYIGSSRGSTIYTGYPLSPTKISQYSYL
T4 sequence (Q9Y4K4 whole entry): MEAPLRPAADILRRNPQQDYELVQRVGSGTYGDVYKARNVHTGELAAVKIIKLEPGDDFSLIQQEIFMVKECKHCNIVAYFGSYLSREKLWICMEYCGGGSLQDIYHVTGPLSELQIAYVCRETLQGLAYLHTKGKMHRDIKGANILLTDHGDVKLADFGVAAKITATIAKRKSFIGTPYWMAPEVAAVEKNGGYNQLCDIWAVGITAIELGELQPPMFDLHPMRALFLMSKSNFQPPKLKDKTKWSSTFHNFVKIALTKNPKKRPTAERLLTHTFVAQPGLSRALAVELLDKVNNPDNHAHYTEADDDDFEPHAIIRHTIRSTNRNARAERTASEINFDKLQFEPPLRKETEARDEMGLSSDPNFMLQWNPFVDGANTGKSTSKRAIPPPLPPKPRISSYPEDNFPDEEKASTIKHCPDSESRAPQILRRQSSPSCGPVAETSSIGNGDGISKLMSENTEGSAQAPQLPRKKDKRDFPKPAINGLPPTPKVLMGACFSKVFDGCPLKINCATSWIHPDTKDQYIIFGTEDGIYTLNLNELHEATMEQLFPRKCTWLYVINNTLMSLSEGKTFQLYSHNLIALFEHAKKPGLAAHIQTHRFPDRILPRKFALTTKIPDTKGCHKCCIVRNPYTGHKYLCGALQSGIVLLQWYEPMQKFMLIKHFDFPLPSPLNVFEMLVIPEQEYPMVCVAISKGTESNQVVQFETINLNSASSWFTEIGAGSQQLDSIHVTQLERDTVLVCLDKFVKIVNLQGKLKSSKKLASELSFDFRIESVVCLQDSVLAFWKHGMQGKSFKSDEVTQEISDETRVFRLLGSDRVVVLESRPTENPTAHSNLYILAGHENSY

inhibition at 10 µM (DYRKIA): 96.1% | inhibition at 10 µM (GAK): 97.9% | inhibition at 10 µM (HIPK1): 97.1% | inhibition at 10 µM (KHS1): 93.2%
SMILES: CS(=O)(=O)Nc1ccccc1Nc1nc(Nc2cccc(OCCN)c2)ncc1Cl [CZC31326, N-(2-(2-(3-(2-aminoethoxy)phenylamino)-5-chloropyrimidin-4-ylamino)phenyl)methanesulfonamide]
